# According to ChEMBL document CHEMBL1201862, “PubChem BioAssay data set” (2004):
# Active and inactive are the calls of the source.
# Legend:
# [1] = molecular target: Glyceraldehyde-3-phosphate dehydrogenase (Homo sapiens, UniProt P04406)
# [2] = molecular target: Potassium voltage-gated channel subfamily KQT member 2 (Rattus norvegicus, UniProt O88943); assay: KCNQ2 potassium channel inhibitors, dose response, cell-based, automated electrophysiology, set II, rat KCNQ2 (AID 588637); format: functional
# [3] = molecular target: Induced myeloid leukemia cell differentiation protein Mcl-1 (Homo sapiens, UniProt Q07820); format: functional
# [4] = molecular target: T1, Mannose-6-phosphate isomerase (Homo sapiens, UniProt P34949); assay: human PMI inhibitors, high substrate, primary screen, biochemical, fluorescence intensity, high mannose 6-phosphate (AID 1220)
# T1 sequence (P34949 whole entry): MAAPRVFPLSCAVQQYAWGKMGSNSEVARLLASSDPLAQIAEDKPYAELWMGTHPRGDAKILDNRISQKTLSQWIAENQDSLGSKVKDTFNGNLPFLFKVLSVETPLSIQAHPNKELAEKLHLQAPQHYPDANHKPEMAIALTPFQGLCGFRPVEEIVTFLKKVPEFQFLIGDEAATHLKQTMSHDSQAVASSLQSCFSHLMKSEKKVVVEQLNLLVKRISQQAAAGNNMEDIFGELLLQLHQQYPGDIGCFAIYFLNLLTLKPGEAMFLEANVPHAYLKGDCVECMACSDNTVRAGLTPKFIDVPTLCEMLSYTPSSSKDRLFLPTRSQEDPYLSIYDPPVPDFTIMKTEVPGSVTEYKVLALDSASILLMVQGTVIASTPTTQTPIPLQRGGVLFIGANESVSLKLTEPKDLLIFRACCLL
# [5] = molecular target: Hepatocyte nuclear factor 4-alpha (Homo sapiens, UniProt P41235); format: functional, cell-based;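 further: biochemical luminescence-based dose-response counterscreen measuring inhibition of HNF4 dimerization, run alongside a screen for blockers of ABHD5–perilipin-5 interaction; split luciferase complementation of HNF4 fusion proteins in cell lysate measuring dimerization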
# [6] = molecular target: T2, Apoptotic protease-activating factor 1 (Homo sapiens, UniProt O14727); assay: SAR analysis of small molecule Activators of Apaf-1 in a Fluorescent assay.; format: functional; settings: read-out: EC50_Mean;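 further: caspase-3 cleavage of fluorogenic Rh110 DEVD substrate downstream of apoptosome activation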
# T2 sequence (O14727 whole entry): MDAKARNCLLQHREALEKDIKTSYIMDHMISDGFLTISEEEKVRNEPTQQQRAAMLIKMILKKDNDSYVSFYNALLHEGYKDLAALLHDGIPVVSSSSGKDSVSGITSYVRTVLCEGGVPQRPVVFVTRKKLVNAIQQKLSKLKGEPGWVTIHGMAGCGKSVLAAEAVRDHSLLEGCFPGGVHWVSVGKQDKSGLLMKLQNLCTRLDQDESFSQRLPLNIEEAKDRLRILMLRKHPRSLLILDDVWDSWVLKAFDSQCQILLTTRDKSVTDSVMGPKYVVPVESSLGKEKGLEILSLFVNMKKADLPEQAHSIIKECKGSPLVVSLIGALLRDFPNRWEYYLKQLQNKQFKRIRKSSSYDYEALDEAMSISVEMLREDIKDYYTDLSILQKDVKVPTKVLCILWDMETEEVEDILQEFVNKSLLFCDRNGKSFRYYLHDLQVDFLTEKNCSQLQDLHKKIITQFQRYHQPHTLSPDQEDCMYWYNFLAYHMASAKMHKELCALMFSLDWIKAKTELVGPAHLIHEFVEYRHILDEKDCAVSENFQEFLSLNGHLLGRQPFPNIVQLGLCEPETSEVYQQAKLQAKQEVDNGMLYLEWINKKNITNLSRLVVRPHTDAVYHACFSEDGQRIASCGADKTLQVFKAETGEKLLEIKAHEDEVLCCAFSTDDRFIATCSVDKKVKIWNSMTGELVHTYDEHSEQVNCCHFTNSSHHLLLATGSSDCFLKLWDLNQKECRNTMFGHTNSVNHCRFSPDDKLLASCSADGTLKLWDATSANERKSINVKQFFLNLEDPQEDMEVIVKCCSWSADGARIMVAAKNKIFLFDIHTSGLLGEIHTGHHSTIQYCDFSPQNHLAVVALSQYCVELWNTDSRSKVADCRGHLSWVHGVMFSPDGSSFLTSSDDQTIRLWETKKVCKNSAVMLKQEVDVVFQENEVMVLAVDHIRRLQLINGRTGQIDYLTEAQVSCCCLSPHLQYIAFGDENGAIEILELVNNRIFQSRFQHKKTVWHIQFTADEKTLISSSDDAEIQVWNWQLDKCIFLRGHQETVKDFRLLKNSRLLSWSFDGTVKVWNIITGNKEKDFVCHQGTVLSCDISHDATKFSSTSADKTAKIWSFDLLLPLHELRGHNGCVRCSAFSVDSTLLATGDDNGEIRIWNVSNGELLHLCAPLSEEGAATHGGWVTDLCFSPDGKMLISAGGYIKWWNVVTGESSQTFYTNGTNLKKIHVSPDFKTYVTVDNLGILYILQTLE
# [7] = molecular target: Nuclear receptor subfamily 5 group A member 2 (Homo sapiens, UniProt O00482); format: functional, cell-based;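 further: HEK293T cells transfected with LRH-1 and a StAR promoter luciferase reporter; potency for inhibitors that lower LRH-1 driven reporter light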
# [8] = StAR promoter reporter inhibition counter-screen, dose response, counter-screen for LRH-1 inverse agonist project, cell-based, luminescence, luciferase reporter (AID 651969); format: functional
# Steroidogenic factor 1 = Steroidogenic factor 1 (Homo sapiens, UniProt Q13285); assay: Counterscreen for inverse agonists of the liver receptor homolog-1 (LRH-1; NR5A2): Luminescence-based cell-based high throughput dose response assay to identify inverse agonists of the Steroidogenic Factor 1 Nuclear Receptor (SF1; NR5A1).; format: functional
# [9] = growth suppression of PTEN-null colon cells, dose response, cell-based, HCT116 PTEN knockout (AID 1047); format: functional;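 further: HCT116 colon tumor cells with PTEN knocked out; cells exposed to compound for 60 hours before readout; potency for loss of cell viability measured by luminescence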
# Melanocortin receptor 4 = Melanocortin receptor 4 (Homo sapiens, UniProt P32245); assay: MC4R antagonist potency on cAMP, dose response, cell-based, TR-FRET, biased antagonists (AID 602298); format: functional;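 further: antagonist potency against agonist-stimulated cAMP production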
# [10] = growth suppression of beta-catenin-knockout colon cells, dose response, cell-based, HCT116, human colon tumor (AID 1045); format: functional;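 further: HCT116 colon tumor cells with beta catenin knocked out; cells exposed to compound for 60 hours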
# [11] = nonselective inhibitors of cellular cAMP signaling, dose response, counter-screen for MC4R biased antagonist project, cell-based, TR-FRET cAMP detection (AID 602305); format: functional;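 further: U2OS cells stimulated with forskolin near its EC80 as the cAMP inducer; potency is for inhibition of forskolin-stimulated cAMP signaling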
# [12] = molecular target: SWI/SNF-related matrix-associated actin-dependent regulator of chromatin subfamily A member 2 (Homo sapiens, UniProt P51531); assay: Luminescence-based cell-based high throughput dose response assay to identify activators of the function of SWI/SNF related, matrix associated, actin dependent regulator of chromatin, subfamily a, member 2 (SMARCA2, BRM).; format: functional
# Interleukin-8 [13] = molecular target: T3, Interleukin-8 (Homo sapiens, UniProt P10145); assay: Dose Response confirmation of uHTS small molecule hits for cystic fibrosis induced NFkb Inhibitors in a TNFa-induced IL8 counterscreen.; format: functional; settings: read-out: IC50_Mean
# [14] = Counterscreen for activators of the function of SWI/SNF related, matrix associated, actin dependent regulator of chromatin, subfamily a, member 2 (SMARCA2, BRM): Luminescence-based cell-based high throughput dose response assay to identify non-selective compounds using the VP16 reporter assay.; format: functional
# Interleukin-8 [15] = molecular target: T3, Interleukin-8; assay: Dose Response confirmation of uHTS small molecule hits for cystic fibrosis induced NFkb Inhibitors in a PAF-induced IL8 counterscreen.; format: functional; settings: read-out: IC50_Mean
# Paired box protein Pax-8 = Paired box protein Pax-8 (Homo sapiens, UniProt Q06710); assay: inhibitors of PAX8-driven TPO luciferase reporter, dose response, RMG-I cells, cherry-pick (AID 687027); format: functional, cell-based;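 further: luciferase reporter driven by Pax8 target thyroperoxidase promoter measured by SteadyGlo luminescence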
# Sequence of Paired box protein Pax-8 (Q06710 whole entry): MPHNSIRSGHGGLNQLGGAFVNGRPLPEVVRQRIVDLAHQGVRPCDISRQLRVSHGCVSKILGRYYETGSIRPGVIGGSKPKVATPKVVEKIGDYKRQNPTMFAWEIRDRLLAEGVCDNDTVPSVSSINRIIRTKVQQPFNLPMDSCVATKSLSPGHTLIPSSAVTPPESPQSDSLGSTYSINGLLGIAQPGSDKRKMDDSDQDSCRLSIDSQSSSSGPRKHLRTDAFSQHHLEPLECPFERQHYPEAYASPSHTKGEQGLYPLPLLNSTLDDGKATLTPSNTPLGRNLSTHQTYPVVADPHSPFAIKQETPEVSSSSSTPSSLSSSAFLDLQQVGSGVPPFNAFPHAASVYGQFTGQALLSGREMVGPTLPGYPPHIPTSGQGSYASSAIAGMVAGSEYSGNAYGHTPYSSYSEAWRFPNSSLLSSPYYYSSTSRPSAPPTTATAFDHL
# T3 sequence (P10145 whole entry): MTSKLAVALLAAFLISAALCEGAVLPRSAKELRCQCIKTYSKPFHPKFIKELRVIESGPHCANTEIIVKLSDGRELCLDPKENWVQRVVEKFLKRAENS
# Sequence of Induced myeloid leukemia cell differentiation protein Mcl-1 (Q07820 whole entry): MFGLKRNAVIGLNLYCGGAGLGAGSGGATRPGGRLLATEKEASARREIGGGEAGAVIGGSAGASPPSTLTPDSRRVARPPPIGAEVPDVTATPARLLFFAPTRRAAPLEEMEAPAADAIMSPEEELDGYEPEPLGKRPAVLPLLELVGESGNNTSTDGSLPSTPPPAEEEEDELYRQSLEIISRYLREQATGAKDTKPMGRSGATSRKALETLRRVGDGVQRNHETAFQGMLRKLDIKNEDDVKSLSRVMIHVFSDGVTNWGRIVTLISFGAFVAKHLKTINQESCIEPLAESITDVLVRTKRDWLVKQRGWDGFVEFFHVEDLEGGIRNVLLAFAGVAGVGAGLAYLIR
# Sequence of SWI/SNF-related matrix-associated actin-dependent regulator of chromatin subfamily A member 2 (P51531 whole entry): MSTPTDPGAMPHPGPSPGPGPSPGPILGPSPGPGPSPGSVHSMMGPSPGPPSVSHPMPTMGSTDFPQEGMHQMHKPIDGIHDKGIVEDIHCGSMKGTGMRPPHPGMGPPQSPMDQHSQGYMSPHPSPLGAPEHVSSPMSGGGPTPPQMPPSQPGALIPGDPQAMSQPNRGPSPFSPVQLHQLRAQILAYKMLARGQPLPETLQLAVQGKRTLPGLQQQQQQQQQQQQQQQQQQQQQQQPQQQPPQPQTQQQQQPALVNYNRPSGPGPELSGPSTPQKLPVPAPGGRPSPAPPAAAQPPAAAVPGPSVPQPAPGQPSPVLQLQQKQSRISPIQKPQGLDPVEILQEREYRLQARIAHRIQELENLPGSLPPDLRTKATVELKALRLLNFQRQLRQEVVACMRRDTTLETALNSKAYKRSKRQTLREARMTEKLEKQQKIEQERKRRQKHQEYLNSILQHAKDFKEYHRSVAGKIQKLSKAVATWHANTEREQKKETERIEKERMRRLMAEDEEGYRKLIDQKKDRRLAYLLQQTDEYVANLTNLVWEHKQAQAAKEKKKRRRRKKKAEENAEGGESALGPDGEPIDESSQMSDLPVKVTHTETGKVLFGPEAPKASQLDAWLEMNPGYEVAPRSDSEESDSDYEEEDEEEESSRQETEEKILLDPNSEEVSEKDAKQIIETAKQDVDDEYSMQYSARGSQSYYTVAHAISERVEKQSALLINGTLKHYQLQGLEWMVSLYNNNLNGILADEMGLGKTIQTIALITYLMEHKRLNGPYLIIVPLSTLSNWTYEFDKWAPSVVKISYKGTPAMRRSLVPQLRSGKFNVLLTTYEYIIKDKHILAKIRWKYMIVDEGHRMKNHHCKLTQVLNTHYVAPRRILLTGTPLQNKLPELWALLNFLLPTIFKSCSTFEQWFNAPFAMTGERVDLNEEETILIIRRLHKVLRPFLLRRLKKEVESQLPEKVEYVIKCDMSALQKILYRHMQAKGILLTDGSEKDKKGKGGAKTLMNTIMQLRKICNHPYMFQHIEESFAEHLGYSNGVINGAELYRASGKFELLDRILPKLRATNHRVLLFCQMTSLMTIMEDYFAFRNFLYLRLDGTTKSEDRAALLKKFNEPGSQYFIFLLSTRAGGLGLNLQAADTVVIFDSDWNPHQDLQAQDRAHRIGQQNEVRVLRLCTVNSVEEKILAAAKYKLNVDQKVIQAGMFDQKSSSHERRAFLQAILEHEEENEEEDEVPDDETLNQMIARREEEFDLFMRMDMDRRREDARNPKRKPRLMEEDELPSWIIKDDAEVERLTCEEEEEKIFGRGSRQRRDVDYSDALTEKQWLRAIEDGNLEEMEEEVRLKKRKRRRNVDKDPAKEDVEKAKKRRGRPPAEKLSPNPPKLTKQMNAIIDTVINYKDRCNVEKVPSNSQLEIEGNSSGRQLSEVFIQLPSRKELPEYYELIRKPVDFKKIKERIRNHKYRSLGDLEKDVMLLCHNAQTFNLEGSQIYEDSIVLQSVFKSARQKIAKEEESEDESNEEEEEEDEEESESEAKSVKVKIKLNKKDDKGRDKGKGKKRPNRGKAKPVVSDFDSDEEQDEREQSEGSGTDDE
# Sequence of Glyceraldehyde-3-phosphate dehydrogenase (P04406 whole entry): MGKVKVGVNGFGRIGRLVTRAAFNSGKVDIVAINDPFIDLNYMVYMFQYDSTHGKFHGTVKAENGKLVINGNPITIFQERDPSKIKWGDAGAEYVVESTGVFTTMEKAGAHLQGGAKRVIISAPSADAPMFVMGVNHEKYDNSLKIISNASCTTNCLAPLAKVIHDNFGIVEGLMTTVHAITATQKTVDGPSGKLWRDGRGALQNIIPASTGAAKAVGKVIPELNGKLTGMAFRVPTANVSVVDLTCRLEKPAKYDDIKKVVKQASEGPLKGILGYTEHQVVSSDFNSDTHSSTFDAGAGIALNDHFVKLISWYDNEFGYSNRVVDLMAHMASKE
# Sequence of Steroidogenic factor 1 (Q13285 whole entry): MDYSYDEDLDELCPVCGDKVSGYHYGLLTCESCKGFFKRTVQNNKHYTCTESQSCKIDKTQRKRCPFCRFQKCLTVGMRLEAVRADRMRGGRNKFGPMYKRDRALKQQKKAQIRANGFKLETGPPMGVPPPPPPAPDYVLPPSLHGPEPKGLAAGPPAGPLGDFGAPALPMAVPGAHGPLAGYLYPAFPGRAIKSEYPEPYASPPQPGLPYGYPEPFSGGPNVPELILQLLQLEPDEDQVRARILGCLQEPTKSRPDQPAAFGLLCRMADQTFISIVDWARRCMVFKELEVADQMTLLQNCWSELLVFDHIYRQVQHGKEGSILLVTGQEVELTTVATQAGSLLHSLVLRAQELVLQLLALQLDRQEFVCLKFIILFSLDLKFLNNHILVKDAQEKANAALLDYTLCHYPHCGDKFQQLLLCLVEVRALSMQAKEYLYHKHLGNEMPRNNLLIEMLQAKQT
# Sequence of Nuclear receptor subfamily 5 group A member 2 (O00482 whole entry): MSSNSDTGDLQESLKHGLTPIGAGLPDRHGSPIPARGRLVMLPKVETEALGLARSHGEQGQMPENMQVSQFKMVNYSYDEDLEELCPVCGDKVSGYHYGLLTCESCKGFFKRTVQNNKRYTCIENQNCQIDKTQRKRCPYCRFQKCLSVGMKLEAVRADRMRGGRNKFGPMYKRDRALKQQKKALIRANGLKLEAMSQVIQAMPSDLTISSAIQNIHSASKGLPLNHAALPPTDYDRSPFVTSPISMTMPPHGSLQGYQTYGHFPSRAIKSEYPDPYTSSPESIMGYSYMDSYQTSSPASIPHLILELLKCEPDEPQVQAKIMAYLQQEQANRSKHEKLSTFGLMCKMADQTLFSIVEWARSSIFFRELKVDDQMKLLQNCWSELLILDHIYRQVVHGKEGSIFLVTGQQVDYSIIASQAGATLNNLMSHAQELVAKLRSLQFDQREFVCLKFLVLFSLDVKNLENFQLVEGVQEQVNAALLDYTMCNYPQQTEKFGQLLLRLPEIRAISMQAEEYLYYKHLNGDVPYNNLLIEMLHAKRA
# Sequence of Potassium voltage-gated channel subfamily KQT member 2 (O88943 whole entry): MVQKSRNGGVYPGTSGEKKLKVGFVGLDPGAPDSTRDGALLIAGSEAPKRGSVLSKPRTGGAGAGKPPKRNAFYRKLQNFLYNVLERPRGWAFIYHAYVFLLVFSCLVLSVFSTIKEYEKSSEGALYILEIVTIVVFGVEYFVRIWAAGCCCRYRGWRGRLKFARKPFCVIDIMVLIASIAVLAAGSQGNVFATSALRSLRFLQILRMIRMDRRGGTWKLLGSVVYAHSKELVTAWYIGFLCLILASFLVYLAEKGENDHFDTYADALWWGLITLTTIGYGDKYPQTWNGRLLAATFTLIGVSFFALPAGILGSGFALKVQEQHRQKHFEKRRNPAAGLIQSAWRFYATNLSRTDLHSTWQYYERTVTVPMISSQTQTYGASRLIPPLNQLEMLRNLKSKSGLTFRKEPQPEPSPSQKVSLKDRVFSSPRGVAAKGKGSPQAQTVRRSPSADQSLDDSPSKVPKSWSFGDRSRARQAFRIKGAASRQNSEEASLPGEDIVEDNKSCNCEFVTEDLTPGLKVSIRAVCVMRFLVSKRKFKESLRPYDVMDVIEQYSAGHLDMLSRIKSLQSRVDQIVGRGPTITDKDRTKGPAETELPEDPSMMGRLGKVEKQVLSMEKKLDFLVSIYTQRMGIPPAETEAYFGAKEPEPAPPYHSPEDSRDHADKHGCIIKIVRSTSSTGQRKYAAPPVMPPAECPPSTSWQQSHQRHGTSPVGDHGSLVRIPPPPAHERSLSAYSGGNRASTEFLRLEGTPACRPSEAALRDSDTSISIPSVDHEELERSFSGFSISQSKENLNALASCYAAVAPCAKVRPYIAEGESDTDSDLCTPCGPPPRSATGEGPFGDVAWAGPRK
# Sequence of Melanocortin receptor 4 (P32245 whole entry): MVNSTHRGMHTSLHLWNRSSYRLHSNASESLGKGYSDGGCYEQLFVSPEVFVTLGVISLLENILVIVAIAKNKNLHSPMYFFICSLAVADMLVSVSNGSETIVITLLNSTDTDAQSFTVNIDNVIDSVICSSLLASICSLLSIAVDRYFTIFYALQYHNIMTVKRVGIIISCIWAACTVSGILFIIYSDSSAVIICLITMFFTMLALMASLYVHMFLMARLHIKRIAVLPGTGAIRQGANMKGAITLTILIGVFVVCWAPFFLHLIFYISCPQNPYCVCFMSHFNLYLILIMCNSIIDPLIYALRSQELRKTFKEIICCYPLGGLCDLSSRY
smiles,measurement,setting,value
Cc1cc(C)c(/N=C2\CCCN2Cc2ccccc2)c(C#N)c1,IC50,[1],> 100 µM (not active)
same,IC50,[2],1.99 µM (active)
CCOC(=O)c1c(C)oc2c1c(CN1CCN(CCO)CC1)c(O)c1ccccc12,IC50,[3],1.13 µM (active)
same,IC50,[4],> 50 µM (not active)
same,IC50,[5],2.31 µM (active)
COc1ccccc1NC(=O)CCS(=O)(=O)c1ccc2c(c1)NC(=O)C(C)S2 (stereo not drawn),EC50,[6],> 100 µM (inactive)
CCc1cc(=O)oc2c(C)c(OCC(=O)NCCN3CCOCC3)ccc12,IC50,[7],35.9 µM (inactive)
same,IC50,[8],35.9 µM (inactive)
same,IC50,Steroidogenic factor 1,9.97 µM (active)
CCc1ccc(OCC(=O)NC(N=C(S)Nc2ccccc2OC)C(Cl)(Cl)Cl)cc1 (stereo not drawn),EC50,[9],9.76 µM (active)
same,IC50,Melanocortin receptor 4,> 64.6 µM (inactive)
same,EC50,[10],9.32 µM (active)
same,IC50,[11],> 64.6 µM (inactive)
C=C1C(=O)[C@]23C[C@H]1CC[C@H]2[C@]1(C)[C@@H](OC(C)=O)CC[C@@](C)(C(=O)O)[C@H]1C[C@@H]3O,EC50,[12],> 91.3 µM (inactive)
same,IC50,Interleukin-8 [13],> 79 µM (inactive)
same,EC50,[14],> 91.3 µM (inactive)
same,IC50,Interleukin-8 [15],0.293 µM (active)
same,AC50,Paired box protein Pax-8,4.07 µM (active)
